Experimental data from PubChem BioAssay (NCI).
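Exposure lasted 48 hours, with cells grown in 96-well plates and compounds tested at five concentrations. Abbreviation: GI50, concentration required for 50% inhibition of growth. TGI denotes the concentration required for complete inhibition of growth.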

Key:
Assay in all cases: NCI tumour cell line growth inhibition, 48 h
CCRF-CEM leukemia = test system: CCRF-CEM leukemia
786-0 renal = test system: 786-0 renal
HCT-15 colon = test system: HCT-15 colon
MDA-MB-435 = test system: MDA-MB-435
SK-OV-3 ovarian = test system: SK-OV-3 ovarian
UACC-62 melanoma = test system: UACC-62 melanoma
SF-268 CNS = test system: SF-268 CNS
SK-MEL-28 melanoma = test system: SK-MEL-28 melanoma
SR leukemia = test system: SR leukemia
OVCAR-5 ovarian = test system: OVCAR-5 ovarian
NCI/ADR-RES ovarian = test system: NCI/ADR-RES ovarian
A498 renal = test system: A498 renal
CAKI-1 renal = test system: CAKI-1 renal
HOP-62 NSCLC = test system: HOP-62 NSCLC
OVCAR-8 ovarian = test system: OVCAR-8 ovarian
MALME-3M melanoma = test system: MALME-3M melanoma
HCT-116 colon = test system: HCT-116 colon
SNB-75 CNS = test system: SNB-75 CNS
K-562 leukemia = test system: K-562 leukemia
SF-295 CNS = test system: SF-295 CNS
OVCAR-4 ovarian = test system: OVCAR-4 ovarian
HCC-2998 colon = test system: HCC-2998 colon
NCI-H226 lung = test system: NCI-H226 lung
RPMI-8226 leukemia = test system: RPMI-8226 leukemia
U251 CNS = test system: U251 CNS
SK-MEL-5 melanoma = test system: SK-MEL-5 melanoma
DU-145 prostate = test system: DU-145 prostate
KM12 colon = test system: KM12 colon
TK-10 renal = test system: TK-10 renal
SW-620 colon = test system: SW-620 colon
IGROV1 ovarian = test system: IGROV1 ovarian
SK-MEL-2 melanoma = test system: SK-MEL-2 melanoma
UO-31 renal = test system: UO-31 renal
HOP-92 NSCLC = test system: HOP-92 NSCLC
ACHN renal = test system: ACHN renal
COLO 205 colon = test system: COLO 205 colon
BT-549 breast = test system: BT-549 breast
A549 NSCLC = test system: A549 NSCLC
PC-3 prostate = test system: PC-3 prostate
HT29 colon = test system: HT29 colon
UACC-257 melanoma = test system: UACC-257 melanoma
SNB-19 CNS = test system: SNB-19 CNS
MCF7 breast = test system: MCF7 breast
NCI-H23 lung = test system: NCI-H23 lung
OVCAR-3 ovarian = test system: OVCAR-3 ovarian
HS 578T breast = test system: HS 578T breast
M14 melanoma = test system: M14 melanoma
MDA-MB-231 breast = test system: MDA-MB-231 breast
NCI-H522 lung = test system: NCI-H522 lung
MOLT-4 leukemia = test system: MOLT-4 leukemia
EKVX NSCLC = test system: EKVX NSCLC
LOX IMVI melanoma = test system: LOX IMVI melanoma
SF-539 CNS = test system: SF-539 CNS
NCI-H460 lung = test system: NCI-H460 lung
SN12C renal = test system: SN12C renal
HL-60(TB) leukemia = test system: HL-60(TB) leukemia

CC[C@]1(O)C[C@H]2CN(CCc3c([nH]c4ccccc34)C(C(=O)OC)(c3cc4c(cc3OC)N(C)[C@H]3[C@@](O)(C(=O)OC)[C@H](OC(C)=O)[C@]5(CC)[C@@H]6C[C@@H]6CN6CC[C@]43[C@@H]65)C2)C1 (stereo partly specified)
GI50 (CCRF-CEM leukemia): 0.00456 µM
TGI (CCRF-CEM leukemia): > 12.9 µM
GI50 (786-0 renal): 0.0068 µM
TGI (786-0 renal): 5 µM
GI50 (HCT-15 colon): 0.0374 µM
TGI (HCT-15 colon): > 14.3 µM
GI50 (MDA-MB-435): < 0.00143 µM
TGI (MDA-MB-435): 0.00219 µM
GI50 (SK-OV-3 ovarian): 0.00285 µM
TGI (SK-OV-3 ovarian): 0.0176 µM
GI50 (UACC-62 melanoma): 0.0022 µM
TGI (UACC-62 melanoma): > 14.3 µM
GI50 (SF-268 CNS): 0.0145 µM
TGI (SF-268 CNS): 10.4 µM
GI50 (SK-MEL-28 melanoma): 0.00305 µM
TGI (SK-MEL-28 melanoma): > 14.3 µM
GI50 (SR leukemia): 0.00211 µM
TGI (SR leukemia): 3.49 µM
GI50 (OVCAR-5 ovarian): 0.00974 µM
TGI (OVCAR-5 ovarian): > 6.67 µM
GI50 (NCI/ADR-RES ovarian): 0.101 µM
TGI (NCI/ADR-RES ovarian): 0.797 µM
GI50 (A498 renal): 0.00275 µM
TGI (A498 renal): 0.012 µM
GI50 (CAKI-1 renal): 0.0345 µM
TGI (CAKI-1 renal): 6.17 µM
GI50 (HOP-62 NSCLC): 0.00365 µM
TGI (HOP-62 NSCLC): > 9.22 µM
GI50 (OVCAR-8 ovarian): 0.00688 µM
TGI (OVCAR-8 ovarian): 0.168 µM
GI50 (MALME-3M melanoma): 0.00659 µM
TGI (MALME-3M melanoma): > 8.73 µM
GI50 (HCT-116 colon): 0.00348 µM
TGI (HCT-116 colon): 4.13 µM
GI50 (SNB-75 CNS): 0.00437 µM
TGI (SNB-75 CNS): 6.36 µM
GI50 (K-562 leukemia): 0.00266 µM
TGI (K-562 leukemia): 2.82 µM
GI50 (SF-295 CNS): 0.00233 µM
TGI (SF-295 CNS): 0.393 µM
GI50 (OVCAR-4 ovarian): 0.0266 µM
TGI (OVCAR-4 ovarian): > 7.51 µM
GI50 (HCC-2998 colon): 0.0045 µM
TGI (HCC-2998 colon): 0.278 µM
GI50 (NCI-H226 lung): 0.0231 µM
TGI (NCI-H226 lung): > 1.59 µM
GI50 (RPMI-8226 leukemia): 0.00469 µM
TGI (RPMI-8226 leukemia): 2.07 µM
GI50 (U251 CNS): 0.00344 µM
TGI (U251 CNS): 0.527 µM
GI50 (SK-MEL-5 melanoma): 0.00184 µM
TGI (SK-MEL-5 melanoma): 0.0313 µM
GI50 (DU-145 prostate): < 0.00143 µM
TGI (DU-145 prostate): > 14.3 µM
GI50 (KM12 colon): 0.00296 µM
TGI (KM12 colon): 1.26 µM
GI50 (TK-10 renal): 0.0404 µM
TGI (TK-10 renal): 5.62 µM
GI50 (SW-620 colon): 0.00564 µM
TGI (SW-620 colon): > 14.3 µM
GI50 (IGROV1 ovarian): 0.00812 µM
TGI (IGROV1 ovarian): 5.11 µM
GI50 (SK-MEL-2 melanoma): < 0.00143 µM
TGI (SK-MEL-2 melanoma): 0.143 µM
GI50 (UO-31 renal): 0.076 µM
TGI (UO-31 renal): 7.66 µM
GI50 (HOP-92 NSCLC): 0.00682 µM
TGI (HOP-92 NSCLC): 0.827 µM
GI50 (ACHN renal): 0.012 µM
TGI (ACHN renal): > 14.3 µM
GI50 (COLO 205 colon): 0.00246 µM
TGI (COLO 205 colon): 0.00937 µM
GI50 (BT-549 breast): 0.0156 µM
TGI (BT-549 breast): 0.683 µM
GI50 (A549 NSCLC): 0.00372 µM
TGI (A549 NSCLC): > 14.3 µM
GI50 (PC-3 prostate): 0.00296 µM
TGI (PC-3 prostate): > 11.8 µM
GI50 (HT29 colon): 0.00258 µM
TGI (HT29 colon): 0.0867 µM
GI50 (UACC-257 melanoma): 0.00509 µM
TGI (UACC-257 melanoma): > 8.64 µM
GI50 (SNB-19 CNS): 0.00667 µM
TGI (SNB-19 CNS): > 14.3 µM
GI50 (MCF7 breast): 0.0019 µM
TGI (MCF7 breast): > 14.3 µM
GI50 (NCI-H23 lung): 0.003 µM
TGI (NCI-H23 lung): 0.498 µM
GI50 (OVCAR-3 ovarian): 0.00184 µM
TGI (OVCAR-3 ovarian): 0.00945 µM
GI50 (HS 578T breast): 0.00331 µM
GI50 (M14 melanoma): 0.00365 µM
TGI (M14 melanoma): 0.254 µM
GI50 (MDA-MB-231 breast): 0.0075 µM
TGI (MDA-MB-231 breast): 0.239 µM
GI50 (NCI-H522 lung): < 0.00143 µM
TGI (NCI-H522 lung): 0.00528 µM
GI50 (MOLT-4 leukemia): 0.0074 µM
TGI (MOLT-4 leukemia): 5.43 µM
GI50 (EKVX NSCLC): 0.00688 µM
TGI (EKVX NSCLC): > 14.3 µM
GI50 (LOX IMVI melanoma): 0.00273 µM
TGI (LOX IMVI melanoma): > 10.3 µM
GI50 (SF-539 CNS): 0.0226 µM
TGI (SF-539 CNS): 3.04 µM
GI50 (NCI-H460 lung): 0.00426 µM
TGI (NCI-H460 lung): > 4.61 µM
GI50 (SN12C renal): 0.00838 µM
TGI (SN12C renal): > 14.3 µM
GI50 (HL-60(TB) leukemia): 0.0034 µM
TGI (HL-60(TB) leukemia): 0.0108 µM
